Starred links: 1 amine or outer side, 2 acyl side, 3 side chain; linkers in the order of their positions; H or OH if unused. Non-standard residues stand in square brackets, D forms with d. Residues, ends and D or L forms follow the SMILES beside them. Phe(2-Me) = Cc1ccccc1C[CH](N)C(=O)O; X2 = CC(F)(F)CC(N[*:1])C(=O)[*:2]; pGlu = O=C1CC[C@@H](C(=O)O)N1; Suc = O=C(CCC(=O)[*:2])[*:1]; Tle = CC(C)(C)[CH](N)C(=O)O; azaGly = NNC(=O)O
Row | SMILES | melting point [°C]
1 | CCC(Cc1c(I)cc(I)c(NC(=O)CCCCCNC(=O)C(COCc2ccccc2)N2CCNCCNCCNCC2)c1I)C(=O)O (configuration not stated) | 144
2 | CN(C)CCCN=S(=O)(c1ccccc1)c1cccs1 (configuration not stated) | 125
3 | COc1ccc(C(/C=C/c2cc(I)c(OC)c(OC)c2)S(=O)(=O)C(/C=C/c2cc(I)c(OC)c(OC)c2)c2ccc(OC)cc2)cc1 (configuration not stated) | 160 to 161
4 | O=C(OCCCOC(=O)C(OCc1ccc(-c2ccc(Cl)cc2)cc1)(C(F)(F)F)C(F)(F)F)C(OCc1ccc(-c2ccc(Cl)cc2)cc1)(C(F)(F)F)C(F)(F)F | 93 to 94
5 | BrCCCCCCCCCCCBr | -11
6 | CCC1(CC)c2cc(-c3nc4cc5sc(-c6ccc7c(c6)C(CC)(CC)c6cc(N(c8ccccc8)c8ccccc8)ccc6-7)nc5cc4s3)ccc2-c2ccc(N(c3ccccc3)c3ccccc3)cc21 | 180 to 183
7 | CCCc1[nH]c2ccccc2c1C1(c2ccc(N(CC)CC)cc2OCCCCCCCCCCOc2cc(N(CC)CC)ccc2C2(c3c(CCC)[nH]c4ccccc34)OC(=O)c3ccccc32)OC(=O)c2ccccc21 (configuration not stated) | 116 to 118
8 | CCCCCCCCCCCC(=O)OC(CCCCCCCCCCC)CC(=O)NC(CCOP(=O)(Oc1ccccc1)Oc1ccccc1)C(=O)OCc1ccccc1 (configuration not stated) | 31 to 32.1
9 | COc1cc(OC)c(/C=C/C(c2ccc(OC)c(NC(=O)C(C)(C)OC(C)=O)c2)S(=O)(=O)C(/C=C/c2c(OC)cc(OC)cc2OC)c2ccc(OC)c(NC(=O)C(C)(C)OC(C)=O)c2)c(OC)c1 (configuration not stated) | 148 to 150
10 | CS(=O)(=O)c1ccc(C(Cc2ccccc2Cl)C(=O)Nc2nc3ccccc3o2)cc1 (configuration not stated) | 107 to 108
11 | CCCCCCCCCCCCCCCCCN1C(=O)C2=C(c3ccc(Br)s3)N(CCCCCCCCCCCCCCCCC)C(=O)C2=C1c1ccc(Br)s1 | 166 to 167
12 | O=P(Oc1c(Br)cc(Br)cc1Br)(Oc1c(Br)cc(Br)cc1Br)Oc1c(Br)cc(Br)cc1Br | 223 to 226
13 | O=S1(=O)c2ccccc2N(c2ccccc2)c2ccc(C=Cc3ccc(-c4ccc(C=Cc5ccc6c(c5)S(=O)(=O)c5ccccc5N6c5ccccc5)cc4)cc3)cc21 | 392
14 | CC[C@H](C)[C@H](NC(=O)N(C)Cc1ccccn1)C(=O)NC(Cc1ccccc1)C(O)C(O)C(Cc1ccccc1)NC(=O)[C@@H](NC(=O)N(C)Cc1ccccn1)[C@@H](C)CC (some centres not stated) | 160 to 161
15 | COc1cc(COc2nn(-c3ccccc3)cc2/C=C/c2nc(N3CCN(C(=O)OC(C)(C)C)CC3)sc2C)ccc1OCc1nc(-c2ccc(CC(=O)O)cc2)oc1C | 119 to 120
16 | CC(C)[C@H](NC(=O)N(C)Cc1ccccn1)C(=O)N[C@@H](Cc1ccccc1)[C@H](O)[C@@H](O)[C@H](Cc1ccccc1)NC(=O)[C@@H](NC(=O)N(C)Cc1cscn1)C(C)C | 84 to 88
17 | CC(=O)C1CCC2C3CCC4CC(O)(C#Cc5cccnc5)CCC4(C)C3CCC12C (configuration not stated) | 230 to 235
18 | CC(C)CCCC(C)C1CCC2C3CC=C4CC(NCCCNC(=O)CCNC(=O)CCNC(=O)CCCCCNc5ccc([N+](=O)[O-])cc5[N+](=O)[O-])CCC4(C)C3CCC12C (configuration not stated) | 118 to 119
19 | CCCCC(CC)C(=O)Cl (configuration not stated) | < -75

Row | SMILES | melting point [°C]
20 | CC(=O)Oc1ccc(-c2cnc(N(S(=O)(=O)Cc3ccc(I)cc3)S(=O)(=O)Cc3ccc(I)cc3)c(Cc3ccccc3)n2)cc1 | 166 to 167
21 | CCCCCCCCCCCCCCCCCC(=O)OCC(COC(=O)C(N)Cc1ccc(N(CCCl)CCCl)cc1)OC(=O)CCCCCCCCCCCCCCCCC (configuration not stated) | 82 to 83
22 | C=CC(=O)OCCCCCCCCCCCOc1ccc(-c2nc(-c3ccc(OCCCCCCCCCCCOC(=O)C=C)cc3O)nc(-c3ccc(OCCCCCCCCCCCOC(=O)C=C)cc3O)n2)c(O)c1 | 72.8
23 | CC(CCC(=O)O)C1CCC2C3C(O)CC4CC(NC(=O)CNC(=O)CN(CCN(CC(=O)O)CC(=O)O)CCN(CC(=O)O)CC(=O)O)CCC4(C)C3CC(O)C12C (configuration not stated) | 120 to 125
24 | O=C(Cc1cc(I)c(Oc2cc(I)c(OCC3CO3)c(I)c2)c(I)c1)NC1CCCCC1 (configuration not stated) | 242
25 | Cc1ccc(-c2c(-c3ccc(S(N)(=O)=O)cc3)[nH]c3ccccc23)cc1C | 251 to 253
26 | CCCSC(=O)c1ccc([Si](CCC(F)(F)C(F)(F)C(F)(F)C(F)(F)C(F)(F)C(F)(F)C(F)(F)C(F)(F)C(F)(F)C(F)(F)F)(CCC(F)(F)C(F)(F)C(F)(F)C(F)(F)C(F)(F)C(F)(F)C(F)(F)C(F)(F)C(F)(F)C(F)(F)F)CCC(F)(F)C(F)(F)C(F)(F)C(F)(F)C(F)(F)C(F)(F)C(F)(F)C(F)(F)C(F)(F)C(F)(F)F)cc1 | 69 to 71
27 | COc1ccc(C2Sc3ccccc3N(CCN(C)C)C(=O)C2OC(=O)C=CC(=O)OC2C(=O)N(CCN(C)C)c3ccccc3SC2c2ccc(OC)cc2)cc1 (configuration not stated) | 112 to 114
28 | Cc1ccc(C(=O)Oc2ccc3c(OC(=O)c4ccc(C)c(OCc5ccccc5)c4)c4ccccc4cc3c2OC(=O)c2ccc(C)c(OCc3ccccc3)c2)cc1OCc1ccccc1 | 132 to 135
29 | COc1ccc(Br)cc1S(=O)(=O)Nc1onc(C)c1Br | 192 to 195
30 | Cc1ccc(S(=O)(=O)N2CCN(S(=O)(=O)c3ccc(C)cc3)CCN(S(=O)(=O)c3ccc(C)cc3)CC(C)N(S(=O)(=O)c3ccc(C)cc3)CCN(S(=O)(=O)c3ccc(C)cc3)CC2)cc1 (configuration not stated) | 245 to 247
31 | CC(C)c1oncc1S(=O)(=O)c1ccc(O)cc1 | 129 to 131
32 | CCOCc1nc2c(N)nc3cc(Br)ccc3c2n1CC1CCN(C(=O)CC(C)C)CC1 | 199 to 200
33 | CC(=O)Nc1cc(C(=O)NC2OC(COC(C)=O)C(OC3OC(COC(C)=O)C(OC(C)=O)C(OC(C)=O)C3OC(C)=O)C(OC(C)=O)C2OC(C)=O)ccc1Cl (configuration not stated) | 122 to 124
34 | CC(C)(C)c1cc(C(C)(C)C)c2op(Op3oc4c(C(C)(C)C)cc(C(C)(C)C)cc4c4cc(C(C)(C)C)cc(C(C)(C)C)c4o3)oc3c(C(C)(C)C)cc(C(C)(C)C)cc3c2c1 | 269
35 | CCO/N=C(\C)[C@H]1CC[C@H]2[C@@H]3CCC4=CC(=O)CC[C@]4(C)[C@H]3CC[C@]12C | 127 to 129
36 | CC(=O)OCC1OC(OC2C(COC(C)=O)OC(OC3C(COC(C)=O)OC(OCCBr)C(N4C(=O)c5ccccc5C4=O)C3OC(C)=O)C(OC(C)=O)C2OC(C)=O)C(OC(C)=O)C(OC(C)=O)C1OC(C)=O (configuration not stated) | 227 to 229
37 | CC(C)C[C@H](NC(=O)[C@@H](Cc1ccccc1)NC(=O)[C@H](Cc1ccc(O)cc1)NC(=O)[C@H](CO)NC(=O)[C@H](Cc1c[nH]c2ccccc12)NC(=O)[C@@H](Cc1ccccc1)NC(=O)[C@@H]1CCC(=O)N1)C(=O)N[C@@H](CCCNC(=N)N)C(=O)N1CCC[C@H]1C(=O)NNC(N)=O ([pGlu][dF]WSY[dF]LRP[azaGly]-NH2) | 179 to 180
38 | COc1ccc(C(=O)c2ccc(OCc3nc(-c4ccccc4)oc3C)cc2)c(O)c1 | 156 to 157

Row | SMILES | melting point [°C]
39 | CCCCN(c1nc(NC(C)(C)CC(C)(C)C)nc(N(CCCC)C2CC(C)(C)N(OC3CCCCC3)C(C)(C)C2)n1)C1CC(C)(C)N(OC2CCCCC2)C(C)(C)C1 | 85 to 103
40 | CCN(CC)CCN=S(=O)(c1ccccc1)c1cccnc1 (configuration not stated) | 130
41 | CS(=O)(=O)N1CC=C(C#Cc2ccc3c(c2)NC(=O)CC(c2cccc(C#N)c2)=N3)CC1 | 235
42 | CN(Cc1ccccc1)Cc1c(-c2ccc([N+](=O)[O-])cc2)sc2c1c(=O)n(-c1ccccc1)c(=O)n2Cc1c(F)cccc1F | 173 to 174
43 | CC(C)CC1C(=O)OC(Cc2ccc(OCc3ccco3)cc2)C(=O)N(C)C(CC(C)C)C(=O)OC(C)CN(C)C(CC(C)C)C(=O)OC(Cc2ccc(OCc3ccco3)cc2)C(=O)N(C)C(CC(C)C)C(=O)OC(C)CN1C (configuration not stated) | 116 to 119
44 | CC1(C)CC(C(O)CNc2nc(NCc3ccc(CNc4nc(NCC(O)C5CC(C)(C)NC(C)(C)C5)nc(NCC(O)C5CC(C)(C)NC(C)(C)C5)n4)cc3)nc(NCC(O)C3CC(C)(C)NC(C)(C)C3)n2)CC(C)(C)N1 (configuration not stated) | 151 to 156
45 | CCCCCCCCCCCCN(CCCCCCCCCCCC)S(=O)(=O)c1cc(NS(=O)(=O)c2ccc(NC(C)=O)c3c(O)c(N=Nc4ccccc4OC)ccc23)c(O)c2ccccc12 | 200 to 202
46 | CCCCC(Cc1cc(C(C)(C)C)c(O)c(C(C)(C)C)c1)(C(=O)OC1CC(C)(C)N(OC2CCCCC2)C(C)(C)C1)C(=O)OC1CC(C)(C)N(OC2CCCCC2)C(C)(C)C1 | 184 to 185
47 | CC(C)c1cc(C(C)C)c(CC(=O)NS(=O)(=O)Oc2c(C(C)C)cc(C(=O)[C@H](CCCCNC(=O)OC(C)(C)C)NC(=O)OC(C)(C)C)cc2C(C)C)c(C(C)C)c1 | 167 to 171
48 | CCC(C)C=O (configuration not stated) | -60
49 | CC(=O)Oc1c(C)cc(Oc2ccc3nc(COc4ccc(CC5SC(=O)N(C(c6ccccc6)(c6ccccc6)c6ccccc6)C5=O)cc4)n(C)c3n2)c(C)c1C (configuration not stated) | 190 to 191
50 | O=C(Nc1cc(Cl)cc(Cl)c1)c1c(O)ccc2ccccc12 | 246 to 248
51 | CC(C)(C)c1cc(SC(Sc2cc(C(C)(C)C)c(O)c(C(C)(C)C)c2)C(Sc2cc(C(C)(C)C)c(O)c(C(C)(C)C)c2)Sc2cc(C(C)(C)C)c(O)c(C(C)(C)C)c2)cc(C(C)(C)C)c1O | 221 to 223
52 | CC(Br)C(=O)N=S(C)(=O)c1ccccc1 (configuration not stated) | 109 to 110
53 | Cc1cc(Oc2ccc3nc(COc4ccc(CC(Nc5ccccc5C(=O)c5ccccc5)C(=O)O)cc4)n(C)c3c2)cc(C)c1NC(=O)Nc1ccc(C(F)(F)F)cc1 (configuration not stated) | 165 to 172
54 | Cc1ccccc1CC(NC(=O)C(CCC(=O)O)NC(=O)C(CC(=O)O)NC(=O)CCC(=O)O)C(=O)NC(C(=O)NC(CC(C)C)C(=O)NC(C=O)CC(C)(F)F)C(C)(C)C (configuration not stated) (Suc-DE[Phe(2-Me)][Tle]L[X2]-aldehyde; configuration not given here) | 128 to 130
55 | CCCCCCCCCCS(=O)(=O)c1c(S(=O)(=O)CCCCCCCCCC)c(S(=O)(=O)CCCCCCCCCC)c(S(=O)(=O)CCCCCCCCCC)c(S(=O)(=O)CCCCCCCCCC)c1S(=O)(=O)CCCCCCCCCC | 76
56 | CCCCCCC1(CCCCCC)c2cc(-c3ccc4c(c3)nc(N)c3nc(COCC)n(CC(C)(C)O)c34)ccc2-c2ccc(-c3ccc4c(c3)nc(N)c3nc(COCC)n(CC(C)(C)O)c34)cc21 | 261 to 265
57 | O=C(Cl)C(F)(F)F | -146
